This test concerns NCI-H460 lung cancer cell line. Description: Cell proliferation inhibition. Conditions: Homo sapiens, docetaxel concentration, Graph Pad Prism 2.1, read-out: IC50 (concentration at which the proliferation of 50% of the population is inhibited). In kind it is cell-based. How it is done:
The % of cell viability at different concentrations of DCX is depicted for polyarginine NC, DCX in solution, polyarginine/DCX NC.
In order to evaluate the potential of the PArg nanocapsules encapsulating the docetaxel cytostatic molecule to inhibit the cell proliferation of the NCI-H460 lung cancer cell line the nanocapsules were prepared according to the method described in Example 3. The results shown in FIG. 9 show the great proliferation inhibition capacity of the nanocapsules encapsulating docetaxel in comparison with the free molecule. […] The IC50 values, concentration at which the proliferation of 50% of the population is inhibited, were calculated by means of the Graph Pad Prism 2.1 program (Graph Pad Software).

pIC50: −log10 of the molar value.

Turning to `CC(=O)O[C@@]12CO[C@@H]1C[C@H](O)[C@@]1(C)C(=O)[C@H](O)C3=C(C)[C@@H](OC(=O)[C@H](O)[C@@H](NC(=O)OC(C)(C)C)c4ccccc4)C[C@@](O)([C@@H](OC(=O)c4ccccc4)[C@H]21)C3(C)C` [docetaxel solution, docetaxel], the pIC50 was 7.87.

For the origin of these results see US20120121670A1, “POLYARGININE NANOCAPSULES” (priority 2009, published 2012).
